For test [1], the target named is T1, ERα (Homo sapiens, UniProt P03372).
T1 sequence (P03372 1-595): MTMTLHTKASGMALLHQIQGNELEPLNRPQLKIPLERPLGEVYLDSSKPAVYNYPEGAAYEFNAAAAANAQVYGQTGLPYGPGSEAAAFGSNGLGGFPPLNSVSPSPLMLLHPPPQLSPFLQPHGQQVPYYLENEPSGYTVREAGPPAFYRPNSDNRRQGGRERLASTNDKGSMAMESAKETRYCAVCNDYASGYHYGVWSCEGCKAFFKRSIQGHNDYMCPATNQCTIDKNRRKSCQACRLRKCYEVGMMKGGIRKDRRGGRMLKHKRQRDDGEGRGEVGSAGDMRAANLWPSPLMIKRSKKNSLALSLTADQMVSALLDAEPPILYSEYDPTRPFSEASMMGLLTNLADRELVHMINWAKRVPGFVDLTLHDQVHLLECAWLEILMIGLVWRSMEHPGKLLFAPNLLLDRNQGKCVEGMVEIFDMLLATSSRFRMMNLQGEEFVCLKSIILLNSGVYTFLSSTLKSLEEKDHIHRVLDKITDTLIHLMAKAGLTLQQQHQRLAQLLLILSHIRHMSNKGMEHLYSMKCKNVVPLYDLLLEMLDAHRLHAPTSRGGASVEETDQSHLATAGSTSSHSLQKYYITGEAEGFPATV
The test is described as follows: ERα radioligand. It is filed as binding. Conditions: for ERα RBA: RBA = IC50 for E2 / IC50 for the test compound; for RBA for human ERs: text summary for human ERs (ERα and ERβ).

A further test has as its system MCF-7 cells. Briefly: In vitro cell proliferation assay. The class given is cell-based, human. Conditions: 0-1000 nM, 6 days, 10% FBS, no additional estrogen.
A further test has as its target T2, ERα LBD and SRC-1 (Homo sapiens, UniProt P03372).
T2 sequence (P03372 311-547 limits assumed): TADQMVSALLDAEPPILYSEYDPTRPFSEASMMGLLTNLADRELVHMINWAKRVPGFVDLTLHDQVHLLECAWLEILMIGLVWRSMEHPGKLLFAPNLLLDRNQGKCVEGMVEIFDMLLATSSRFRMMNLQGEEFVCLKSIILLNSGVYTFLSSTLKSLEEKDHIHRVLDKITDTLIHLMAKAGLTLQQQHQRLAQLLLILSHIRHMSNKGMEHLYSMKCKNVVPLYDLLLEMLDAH
Briefly: Mammalian two-hybrid assay, ERα LBD - SRC-1 interaction in HeLa cells. Conditions: 100 nM ligand, GAL-SRC-1 + VP16-ERα-LBD. It is filed as cell-based.

The next test addresses recombinant human ERβ (Homo sapiens, UniProt Q92731). Briefly: ERβ radioligand. It is filed as binding. Conditions: RBA = IC50 for E2 / IC50 for the test compound.
For a further test, the system named is MDA-MB-231 cells. Briefly: In vitro cell proliferation assay. It is filed as cell-based, human. To be noted: 0-1000 nM, 6 days.
Test [2] addresses T1, ERα. Briefly: ERα trans-activation luciferase reporter assay in HeLa cells. To be noted: for antagonism of E2-stimulated luciferase expression in HeLa cells: in presence of 1 nM E2; for ERα agonist activity in HeLa or MCF-7 cells: 100 nM derivative, pCR3.1-ERα + ERE-Elb-Luc. (Reporter assays use an easily measured gene product as a stand-in for the process of interest.)
In test [3] the target is T1, ERα. Briefly: ERα trans-activation luciferase reporter assay in MCF-7 cells. Conditions: 100 nM derivative, compared with 1 nM E2; ERE-Elb-Luc reporter.
In test [4] the target is T1, ERα. The test is described as follows: ERα trans-activation luciferase reporter assay in HepG2 cells.
For test [5], the system named is ERα LBD and CBP CH3 domain. Conditions: prior report ref 16; cited from earlier work.

Molecules are shown by their SMILES. Entries after “also recorded” stand apart in the source; their conditions may differ. Read-outs that look alike come from different tables or passages of the source. Bounds are passed on as bounds.

Results on ten compounds are retold here after PMC3666588 (Journal of medicinal chemistry, 2013).

Chain of recombinant human ERβ (Q92731 whole entry): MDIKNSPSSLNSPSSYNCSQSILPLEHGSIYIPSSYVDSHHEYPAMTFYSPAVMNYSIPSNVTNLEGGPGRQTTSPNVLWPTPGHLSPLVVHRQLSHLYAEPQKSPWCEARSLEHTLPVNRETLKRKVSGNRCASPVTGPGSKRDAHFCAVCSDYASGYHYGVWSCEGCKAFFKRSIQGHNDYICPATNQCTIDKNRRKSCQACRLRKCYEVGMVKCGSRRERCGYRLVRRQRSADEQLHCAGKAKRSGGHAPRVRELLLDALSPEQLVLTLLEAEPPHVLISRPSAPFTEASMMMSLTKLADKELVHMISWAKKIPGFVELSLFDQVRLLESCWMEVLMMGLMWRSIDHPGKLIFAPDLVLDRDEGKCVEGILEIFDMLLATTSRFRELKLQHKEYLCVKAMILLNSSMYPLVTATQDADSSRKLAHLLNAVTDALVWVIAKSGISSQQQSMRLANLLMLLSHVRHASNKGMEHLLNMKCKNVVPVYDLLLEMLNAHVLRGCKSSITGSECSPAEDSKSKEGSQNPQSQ

On to `C[C@]12CC[C@@H]3c4ccc(O)cc4C[C@@H](CCCCC#Cc4ccc5ccccc5c4)[C@H]3[C@@H]1CC[C@@H]2O` [J2, 3,17β-bis(hydroxy)-7α-(6-naphthalen-2-yl-hex-5-ynyl)-estra-1,3,5(10)-trien], for which the “ERα RBA” value at ERα [1] is reported as 3.4%. For the same compound, in the test on MCF-7 cells, the “effect on growth of ER-positive MCF-7 cells” value is “either no effect or a stimulatory effect; also recorded: did not show an appreciable effect”. In addition, the “promotion of ERα - SRC-1 coactivator interaction” value on ERα LBD and SRC-1 is on record as “effectively promoted the interaction”.
In the case of `CC(C)(C)OC(=O)N1CCN(c2ccc(C#CCCCC[C@@H]3Cc4cc(O)ccc4[C@H]4CC[C@]5(C)[C@@H](O)CC[C@H]5[C@H]34)cc2)CC1` [J4, 4-{4-[6-((7α,17β)-3,17-dihydroxyestra-1,3,5(10)-trien-7-yl)-hex-1-ynyl]-phenyl}-piperazine-1-carboxylic acid tert-butyl ester], at ERα [1], the “ERα RBA” value came out at 1.1% and the “RBA for human ERs” value was “approximately 1 % of E2”. The “ERβ RBA” value on recombinant human ERβ is given as 2.0%. For the same compound, the “effect on growth of ER-positive MCF-7 cells” value with MCF-7 cells is recorded as “concentration-dependent inhibition”. For the same compound, the “effect on growth of ER-negative MDA-MB-231 cells” value with MDA-MB-231 cells is “no appreciable effect; also recorded: did not show an appreciable effect”. Further, the “promotion of ERα - SRC-1 coactivator interaction” value on ERα LBD and SRC-1 is on record as “did not induce significant SRC-1 binding”. Also, the “antagonism of E2-stimulated luciferase expression in HeLa cells” value (from here on “antagonism”) at ERα [2] was “less effective inhibitors”. Also, the “ERα agonist activity (transcription of target gene) in MCF-7 cells” value (shortened to “ERα agonist activity … in MCF-7 cells”) at ERα [3] is “very poor agonists”.
On to `C[C@]12CC[C@@H]3c4ccc(O)cc4C[C@@H](CCCCC#Cc4ccc(-n5cccc5)cc4)[C@H]3[C@@H]1CC[C@@H]2O` [J1, 3,17β-bis(hydroxy)-7α-[6-(4-pyrrol-1-yl-phenyl)-hex-5-ynyl]-estra-1,3,5(10)-trien], for which, at ERα [1], the “ERα RBA” value is 21.2% and the “RBA for human ERs” value is listed as > 20 % of E2. Besides, in the test with MCF-7 cells, the “effect on growth of ER-positive MCF-7 cells” value is on record as “either no effect or a stimulatory effect; also recorded: did not show an appreciable effect”. In addition, the “promotion of ERα - SRC-1 coactivator interaction” value on ERα LBD and SRC-1 is recorded as “effectively promoted the interaction”.
With `C[C@]12CC[C@@H]3c4ccc(O)cc4C[C@@H](CCCCC#Cc4ccc(CN5CCCCC5)cc4)[C@H]3[C@@H]1CC[C@@H]2O` [J6, 3,17β-bis(hydroxy)-7α-[6-(4-piperidin-1-ylmethyl-phenyl)-hex-5-ynyl]-estra-1,3,5(10)-trien], on ERα [1], the “ERα RBA” value worked out at 0.9% and the “RBA for human ERs” value is reported as “approximately 1 % of E2”. Besides, the “effect on growth of ER-positive MCF-7 cells” value in the test on MCF-7 cells is on record as “either no effect or a stimulatory effect; also recorded: did not show an appreciable effect”. For the same compound, at ERα LBD and SRC-1, the “promotion of ERα - SRC-1 coactivator interaction” value is “effectively promoted the interaction”. Moreover, at ERα [3], the “ERα agonist activity … in MCF-7 cells” value is reported as “markedly weaker effect”.
As for `CCOC(=O)CC(=O)c1ccc(C#CCCCC[C@@H]2Cc3cc(O)ccc3[C@H]3CC[C@]4(C)[C@@H](O)CC[C@H]4[C@H]23)cc1` [J5, 3-{4-[6-((7α,17β)-3,17-dihydroxyestra-1,3,5(10)-trien-7-yl)-hex-1-ynyl]-phenyl}-3-oxo-propionic acid ethyl ester], on ERα [1], the “ERα RBA” value came out at 6.2%. For the same compound, at recombinant human ERβ, the “ERβ RBA” value stood at 4.7%. Besides, the “effect on growth of ER-positive MCF-7 cells” value in the test with MCF-7 cells is recorded as “either no effect or a stimulatory effect; also recorded: did not show an appreciable effect”. Also, the “promotion of ERα - SRC-1 coactivator interaction” value at ERα LBD and SRC-1 is “effectively promoted the interaction”.
As to `C[C@]12CC[C@@H]3c4ccc(O)cc4C[C@@H](CCCCc4cn(CC5COc6ccccc6O5)nn4)[C@H]3[C@@H]1CC[C@@H]2O` (stereo partly drawn) [J9, 3,17β-bis(hydroxy)-7α-{4-[1-(2,3-Dihydro-1,4-benzodioxin-2-ylmethyl)-1H-1,2,3-triazol-4-yl]-butyl}-estra-1,3,5(10)-trien], at ERα [1], the “ERα RBA” value is reported as 24.6% and the “RBA for human ERs” value is given as > 20 % of E2. Besides, the “RBA for the human ERα” value at ERα [1] (stated in docking discussion) is reported as 24.6 % of E2. Further, the “ERβ RBA” value at recombinant human ERβ is 21.1%. For the same compound, the “effect on growth of ER-positive MCF-7 cells” value with MCF-7 cells is “concentration-dependent inhibition”. Besides, the “promotion of ERα - SRC-1 coactivator interaction” value on ERα LBD and SRC-1 was “did not induce significant SRC-1 binding”. Besides, on ERα [2], the “ERα agonist activity in HeLa or MCF-7 cells” value is listed as “poor agonists” and the “antagonism” value is “strongest antagonists”. The “ERα agonist activity … in MCF-7 cells” value at ERα [3] is on record as “no agonist activity”. Moreover, on ERα [4] (100 nM derivative, normalized to 1 nM E2, pCR3.1-ERα + ERE-Elb-Luc), the “agonist activity in HepG2 cells relative to E2” value was “approximately 50 % of the agonist activity of E2”.
In the case of `C[C@]12CC[C@@H]3c4ccc(O)cc4C[C@@H](CCCCCCCCC[S+]([O-])CCCC(F)(F)C(F)(F)F)[C@H]3[C@@H]1CC[C@@H]2O` (stereo partly shown) [ICI-182,780, fulvestrant], in [5], the “promotion of ERα interaction with CBP coactivator” value is reported as “strongly promote ERα interaction with the CBP coactivator”.
Consider `C[C@]12CC[C@@H]3c4ccc(O)cc4C[C@@H](CCCCC#Cc4ccc(-c5ccno5)cc4)[C@H]3[C@@H]1CC[C@@H]2O` [J3, 3,17β-bis(hydroxy)-7α-[6-(4-Isoxazol-5-yl-phenyl)-hex-5-ynyl]-estra-1,3,5(10)-trien], for which, at ERα [1], the “RBA for human ERs” value was “approximately 1 % of E2”. The “effect on growth of ER-positive MCF-7 cells” value in the test on MCF-7 cells is given as “concentration-dependent inhibition”. Moreover, the “effect on growth of ER-negative MDA-MB-231 cells” value in the test with MDA-MB-231 cells is given as “no appreciable effect; also recorded: did not show an appreciable effect”. Besides, at ERα LBD and SRC-1, the “promotion of ERα - SRC-1 coactivator interaction” value is “did not induce significant SRC-1 binding”. At ERα [2], the “ERα agonist activity in HeLa or MCF-7 cells” value was “poor agonists” and the “antagonism” value is reported as “less effective inhibitors”. Also, at ERα [3], the “ERα agonist activity … in MCF-7 cells” value is on record as “very poor agonists”. Also, at ERα [4], the “agonist activity in HepG2 cells relative to E2” value is “approximately 50 % of the agonist activity of E2”.
Consider `CCOC(=O)C(Cc1ccc(C#CCCCC[C@@H]2Cc3cc(O)ccc3[C@H]3CC[C@]4(C)[C@@H](O)CC[C@H]4[C@H]23)cc1)C(=O)OCC` [J8, 2-{4-[6-((7α,17β)-3,17-dihydroxyestra-1,3,5(10)-trien-7-yl)-hex-1-ynyl]-benzyl}-malonic acid diethyl ester], for which the “ERα RBA” value on ERα [1] turned out to be 4.7%. The “ERβ RBA” value at recombinant human ERβ is 5.8%. Further, the “effect on growth of ER-positive MCF-7 cells” value in the test with MCF-7 cells is listed as “either no effect or a stimulatory effect; also recorded: did not show an appreciable effect”. Besides, the “promotion of ERα - SRC-1 coactivator interaction” value at ERα LBD and SRC-1 is listed as “effectively promoted the interaction”. In addition, the “ERα agonist activity … in MCF-7 cells” value at ERα [3] is recorded as “markedly weaker effect”.
For the compound `C[C@]12CC[C@@H]3c4ccc(O)cc4C[C@@H](CCCCc4cn(-c5cc6ccc(O)cc6oc5=O)nn4)[C@H]3[C@@H]1CC[C@@H]2O` [J7, 3-{4-[4-((7α,17β)-3,17-dihydroxyestra-1,3,5(10)-trien-7-yl)-butyl]-1,2,3-triazol-1-yl}-7-hydroxy-1-benzopyran-2-one], the “effect on growth of ER-positive MCF-7 cells” value in the test on MCF-7 cells is “concentration-dependent inhibition”. On ERα LBD and SRC-1, the “promotion of ERα - SRC-1 coactivator interaction” value is given as “did not induce significant SRC-1 binding”. In addition, the “antagonism” value on ERα [2] is recorded as “strongest antagonists”. In addition, the “ERα agonist activity … in MCF-7 cells” value at ERα [3] is “no agonist activity”.
